Data: BindingDB's records for doi:10.1016/j.bmcl.2021.127992 (Kyung Hee University, 2021)

Each molecule was assayed against T1, Prostaglandin E synthase (Homo sapiens, UniProt O14684) (assay: Inhibition of mPGES-1 in human A549 cells assessed as reduction in IL-1beta stimulated […] production).
T1 sequence (O14684 whole entry): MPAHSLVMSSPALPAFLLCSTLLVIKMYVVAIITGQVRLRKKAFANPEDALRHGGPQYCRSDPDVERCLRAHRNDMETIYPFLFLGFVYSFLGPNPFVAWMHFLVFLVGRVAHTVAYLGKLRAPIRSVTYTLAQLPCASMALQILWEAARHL

**Q.** `O=C(Oc1ccc(OCc2ccccc2)cc1)N(Nc1ccccc1)S(=O)(=O)c1ccc(Cl)cc1` was tested. Which IC50 did it give?
**A.** 250 nM

**Q.** `O=C(Oc1ccc(OCc2ccccc2)cc1)N(Cc1ccccc1)S(=O)(=O)c1ccc(Cl)cc1` was tested. Which IC50 did it give?
**A.** 2000 nM

**Q.** `O=C(Nc1ccc(OCCCCc2ccccc2)cc1)N(Cc1ccccc1)S(=O)(=O)c1ccc(Cl)cc1` was tested. Which IC50 did it give?
**A.** 1000 nM
